One assay deals with DAGLα (hDAGLα-FLAG) (Homo sapiens (Human), UniProt Q9Y4D2). Description: competitive ABPP, membrane proteome of transfected HEK293T cells. The format is biochemical. The conditions noted are these: for inhibition at 0.0032 µM: 3.2 nM, read-out: DAGLα % inh. 3.2 nM; for IC50: read-out: DAGLα IC50. A digest of the protocol: (§1)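 HEK293T membrane proteome (1 mg/ml) expressing FLAG-tagged human DAGLα or DAGLβ, treated 30 min at room temperature with compound, then 30 min with HT-01 or FP-Rh probe (1 μM). Bands separated by SDS-PAGE were normalized to DMSO for IC50 by variable-slope fit.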

In another assay the target is DAGLβ (hDAGLβ-FLAG) (Homo sapiens (Human), UniProt Q8NCG7). The assay is described as above. The format is biochemical. The conditions noted are these: for inhibition at 0.0032 µM: read-out: DAGLβ % inh. 3.2 nM; for IC50: read-out: DAGLβ IC50. A digest of the protocol: as §1

A word on the IC50: it is the concentration at which inhibition is half-maximal.

Where only a bound is given, the exact number is not on record here.

DAGLα (hDAGLα-FLAG), sequence (Q9Y4D2 whole entry): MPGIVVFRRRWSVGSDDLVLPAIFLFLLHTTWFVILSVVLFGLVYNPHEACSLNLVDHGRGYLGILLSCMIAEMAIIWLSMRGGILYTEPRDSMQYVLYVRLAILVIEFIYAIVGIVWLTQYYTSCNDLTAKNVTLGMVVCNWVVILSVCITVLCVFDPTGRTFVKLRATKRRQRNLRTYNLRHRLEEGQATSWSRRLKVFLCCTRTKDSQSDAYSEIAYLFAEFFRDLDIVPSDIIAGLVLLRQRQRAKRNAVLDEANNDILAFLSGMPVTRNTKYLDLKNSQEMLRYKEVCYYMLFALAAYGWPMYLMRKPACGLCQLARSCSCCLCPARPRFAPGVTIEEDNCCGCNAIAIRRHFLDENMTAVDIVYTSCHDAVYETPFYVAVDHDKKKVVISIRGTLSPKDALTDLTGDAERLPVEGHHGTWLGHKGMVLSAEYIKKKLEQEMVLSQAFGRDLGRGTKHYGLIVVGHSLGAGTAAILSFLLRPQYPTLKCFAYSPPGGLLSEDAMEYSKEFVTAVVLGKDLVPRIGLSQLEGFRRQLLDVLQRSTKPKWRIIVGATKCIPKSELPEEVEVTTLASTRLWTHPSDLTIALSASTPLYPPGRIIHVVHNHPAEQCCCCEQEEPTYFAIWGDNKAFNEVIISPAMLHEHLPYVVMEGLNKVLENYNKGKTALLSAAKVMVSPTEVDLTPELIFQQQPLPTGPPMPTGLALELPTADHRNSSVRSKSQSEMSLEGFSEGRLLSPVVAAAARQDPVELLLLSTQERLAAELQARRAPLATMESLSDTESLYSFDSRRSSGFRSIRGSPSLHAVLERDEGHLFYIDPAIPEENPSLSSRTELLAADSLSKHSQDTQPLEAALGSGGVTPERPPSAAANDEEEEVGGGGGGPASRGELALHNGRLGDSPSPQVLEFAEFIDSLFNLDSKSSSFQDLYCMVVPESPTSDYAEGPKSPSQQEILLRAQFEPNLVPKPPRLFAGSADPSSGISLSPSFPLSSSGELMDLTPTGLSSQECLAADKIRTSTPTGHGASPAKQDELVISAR
DAGLβ (hDAGLβ-FLAG), sequence (Q8NCG7 whole entry): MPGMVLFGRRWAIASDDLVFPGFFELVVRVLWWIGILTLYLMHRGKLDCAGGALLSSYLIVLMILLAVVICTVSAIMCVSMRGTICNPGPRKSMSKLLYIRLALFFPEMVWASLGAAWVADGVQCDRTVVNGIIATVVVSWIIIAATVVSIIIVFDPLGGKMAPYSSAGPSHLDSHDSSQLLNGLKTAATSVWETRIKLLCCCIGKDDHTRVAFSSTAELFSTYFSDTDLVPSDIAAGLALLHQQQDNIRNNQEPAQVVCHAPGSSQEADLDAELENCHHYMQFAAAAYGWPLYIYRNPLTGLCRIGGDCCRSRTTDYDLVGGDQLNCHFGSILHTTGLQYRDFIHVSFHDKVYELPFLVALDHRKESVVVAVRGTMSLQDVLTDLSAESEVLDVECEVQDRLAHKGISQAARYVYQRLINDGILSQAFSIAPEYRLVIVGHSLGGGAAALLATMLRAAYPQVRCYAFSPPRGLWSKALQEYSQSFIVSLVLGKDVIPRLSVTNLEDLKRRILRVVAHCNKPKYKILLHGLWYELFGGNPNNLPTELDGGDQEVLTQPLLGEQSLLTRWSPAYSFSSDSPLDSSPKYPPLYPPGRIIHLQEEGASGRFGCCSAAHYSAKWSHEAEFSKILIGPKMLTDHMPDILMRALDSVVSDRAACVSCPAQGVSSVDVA

Turning to `O=C(N1CCC=C[C@@H]1COCc1ccccc1)n1ncc(-c2ccc(OC(F)(F)F)cc2)n1` [Compound 107, (R)-(6-((benzyloxy)methyl)-3,6-dihydropyridin-1(2H)-yl)(4-(4-(trifluoromethoxy)phenyl)-2H-1,2,3-triazol-2-yl)methanone], the inhibition at 0.0032 µM on DAGLα (hDAGLα-FLAG) and on DAGLβ (hDAGLβ-FLAG) was 0 to 25% each time.

As to `O=C(N1CCC=C[C@H]1COCc1ccccc1)n1cc(-c2ccc(OC(F)(F)F)cc2)nn1` [Compound 108, (S)-(6-((benzyloxy)methyl)-3,6-dihydropyridin-1(2H)-yl)(4-(4-(trifluoromethoxy)phenyl)-1H-1,2,3-triazol-1-yl)methanone], the inhibition at 0.0032 µM on DAGLα (hDAGLα-FLAG) and on DAGLβ (hDAGLβ-FLAG) was 0 to 25% each time.

With `O=C(N1CCC=C[C@H]1COCc1ccccc1)n1ncc(-c2ccc(OC(F)(F)F)cc2)n1` [Compound 109, (S)-(6-((benzyloxy)methyl)-3,6-dihydropyridin-1(2H)-yl)(4-(4-(trifluoromethoxy)phenyl)-2H-1,2,3-triazol-2-yl)methanone], the inhibition at 0.0032 µM on DAGLα (hDAGLα-FLAG) and on DAGLβ (hDAGLβ-FLAG) was 0 to 25% in each case.

As for `O=C(N1CCCCC1COc1ccccc1)n1cc(-c2ccc(OC(F)(F)F)cc2)nn1` (stereo not shown) [Compound 110, (2-(phenoxymethyl)piperidin-1-yl)(4-(4-(trifluoromethoxy)phenyl)-1H-1,2,3-triazol-1-yl)methanone], the inhibition at 0.0032 µM on DAGLα (hDAGLα-FLAG) and at DAGLβ (hDAGLβ-FLAG) was 0 to 25% in each case.

For `O=C(N1CCCCC1COc1ccccc1)n1ncc(-c2ccc(OC(F)(F)F)cc2)n1` (stereo not shown) [Compound 111, (2-(phenoxymethyl)piperidin-1-yl)(4-(4-(trifluoromethoxy)phenyl)-2H-1,2,3-triazol-2-yl)methanone], the inhibition at 0.0032 µM at DAGLα (hDAGLα-FLAG) and on DAGLβ (hDAGLβ-FLAG) was 0 to 25% each time.

For `O=C(N1C[C@H](O)C=C[C@@H]1Cc1ccccc1)n1cc(-c2ccc(OC(F)(F)F)cc2)nn1` [Compound 112, ((3R,6S)-6-benzyl-3-hydroxy-3,6-dihydropyridin-1(2H)-yl)(4-(4-(trifluoromethoxy)phenyl)-1H-1,2,3-triazol-1-yl)methanone], the inhibition at 0.0032 µM at DAGLα (hDAGLα-FLAG) and on DAGLβ (hDAGLβ-FLAG) was 0 to 25% in each case.

With `O=C(N1C[C@H](O)C=C[C@@H]1Cc1ccccc1)n1ncc(-c2ccc(OC(F)(F)F)cc2)n1` [Compound 113, ((3R,6S)-6-benzyl-3-hydroxy-3,6-dihydropyridin-1(2H)-yl)(4-(4-(trifluoromethoxy)phenyl)-2H-1,2,3-triazol-2-yl)methanone], the inhibition at 0.0032 µM at DAGLα (hDAGLα-FLAG) and on DAGLβ (hDAGLβ-FLAG) was 0 to 25% throughout.

For the compound `O=C(N1C[C@@H](O)C=C[C@@H]1Cc1ccccc1)n1cc(-c2ccc(OC(F)(F)F)cc2)nn1` [Compound 114, ((3S,6S)-6-benzyl-3-hydroxy-3,6-dihydropyridin-1(2H)-yl)(4-(4-(trifluoromethoxy)phenyl)-1H-1,2,3-triazol-1-yl)methanone], the inhibition at 0.0032 µM on DAGLα (hDAGLα-FLAG) and on DAGLβ (hDAGLβ-FLAG) was 0 to 25% throughout.

Consider `O=C(N1C[C@@H](O)C=C[C@@H]1Cc1ccccc1)n1ncc(-c2ccc(OC(F)(F)F)cc2)n1` [Compound 115, ((3S,6S)-6-benzyl-3-hydroxy-3,6-dihydropyridin-1(2H)-yl)(4-(4-(trifluoromethoxy)phenyl)-2H-1,2,3-triazol-1-yl)methanone], for which the inhibition at 0.0032 µM at DAGLα (hDAGLα-FLAG) and at DAGLβ (hDAGLβ-FLAG) was 0 to 25% throughout.

For the compound `CO[C@@H]1CC[C@H](Cc2ccccc2)N(C(=O)n2cc(-c3ccc(OC(F)(F)F)cc3)nn2)C1` [Compound 116, ((2R,5R)-2-benzyl-5-methoxypiperidin-1-yl)(4-(4-(trifluoromethoxy)phenyl)-1H-1,2,3-triazol-1-yl)methanone], the inhibition at 0.0032 µM on DAGLα (hDAGLα-FLAG) fell in the range of 25 to 50%; on DAGLβ (hDAGLβ-FLAG), 0 to 25%.

With `CO[C@@H]1CC[C@H](Cc2ccccc2)N(C(=O)n2ncc(-c3ccc(OC(F)(F)F)cc3)n2)C1` [Compound 117, ((2R,5R)-2-benzyl-5-methoxypiperidin-1-yl)(4-(4-(trifluoromethoxy)phenyl)-2H-1,2,3-triazol-1-yl)methanone], the inhibition at 0.0032 µM at DAGLα (hDAGLα-FLAG) and on DAGLβ (hDAGLβ-FLAG) was 0 to 25% each time.

For `CO[C@H]1CC[C@H](Cc2ccccc2)N(C(=O)n2cc(-c3ccc(OC(F)(F)F)cc3)nn2)C1` [Compound 118, ((2R,5S)-2-benzyl-5-methoxypiperidin-1-yl)(4-(4-(trifluoromethoxy)phenyl)-1H-1,2,3-triazol-1-yl)methanone], the inhibition at 0.0032 µM on DAGLα (hDAGLα-FLAG) was 25 to 50%; on DAGLβ (hDAGLβ-FLAG) it was 0 to 25%.

With `CO[C@H]1CC[C@H](Cc2ccccc2)N(C(=O)n2ncc(-c3ccc(OC(F)(F)F)cc3)n2)C1` [Compound 119], the inhibition at 0.0032 µM on DAGLα (hDAGLα-FLAG) and at DAGLβ (hDAGLβ-FLAG) was 0 to 25% in each case.

`O=C(N1C[C@H](OCC2CC2)CC[C@@H]1Cc1ccccc1)n1cc(-c2ccc(OC(F)(F)F)cc2)nn1` [Compound 120, ((2R,5R)-2-benzyl-5-(cyclopropylmethoxy)piperidin-1-yl)(4-(4-(trifluoromethoxy)phenyl)-1H-1,2,3-triazol-1-yl)methanone]: the values for the inhibition at 0.0032 µM on DAGLα (hDAGLα-FLAG) and on DAGLβ (hDAGLβ-FLAG) were at least 75% and 25 to 50%, respectively.

On to `O=C(N1C[C@H](OCC2CC2)CC[C@@H]1Cc1ccccc1)n1ncc(-c2ccc(OC(F)(F)F)cc2)n1` [Compound 121], for which the inhibition at 0.0032 µM on DAGLα (hDAGLα-FLAG) and at DAGLβ (hDAGLβ-FLAG) was 0 to 25% each time.

For `CC(C)(C)CN(CCc1ccccc1)C(=O)n1cc(-c2ccc(OC(F)(F)F)cc2)nn1` [Compound 123, N-neopentyl-N-phenethyl-4-(4-(trifluoromethoxy)phenyl)-1H-1,2,3-triazole-1-carboxamide], the IC50 on DAGLα (hDAGLα-FLAG) and on DAGLβ (hDAGLβ-FLAG) was at most 400 nM throughout.

As for `O=C(N(CCc1ccccc1)C1CCC1)n1cc(-c2ccc(OC(F)(F)F)cc2)nn1` [Compound 124, N-cyclobutyl-N-phenethyl-4-(4-(trifluoromethoxy)phenyl)-1H-1,2,3-triazole-1-carboxamide], the IC50 on DAGLα (hDAGLα-FLAG) and at DAGLβ (hDAGLβ-FLAG) was at most 400 nM in each case.

Regarding `O=C(N(CCc1ccccc1)C1CC1)n1cc(-c2ccc(OC(F)(F)F)cc2)nn1` [Compound 125, N-cyclopropyl-N-phenethyl-4-(4-(trifluoromethoxy)phenyl)-1H-1,2,3-triazole-1-carboxamide], the IC50 on DAGLα (hDAGLα-FLAG) and at DAGLβ (hDAGLβ-FLAG) was at most 400 nM each time.

On to `CC(C)(C)CN(CCc1ccccc1)C(=O)n1ncc(-c2ccc(OC(F)(F)F)cc2)n1` [Compound 127, N-neopentyl-N-phenethyl-4-(4-(trifluoromethoxy)phenyl)-2H-1,2,3-triazole-2-carboxamide], for which the values for the IC50 on DAGLα (hDAGLα-FLAG) and on DAGLβ (hDAGLβ-FLAG) were 2000 to 10000 nM and at most 400 nM, respectively.

As to `O=C(N(CCc1ccccc1)C1CCC1)n1ncc(-c2ccc(OC(F)(F)F)cc2)n1` [Compound 128, N-cyclobutyl-N-phenethyl-4-(4-(trifluoromethoxy)phenyl)-2H-1,2,3-triazole-2-carboxamide], the IC50 was in the range of 2000 to 10000 nM on DAGLα (hDAGLα-FLAG) and 400 to 2000 nM at DAGLβ (hDAGLβ-FLAG).

For the compound `O=C(N(CCc1ccccc1)C1CC1)n1ncc(-c2ccc(OC(F)(F)F)cc2)n1` [Compound 129, N-cyclopropyl-N-phenethyl-4-(4-(trifluoromethoxy)phenyl)-2H-1,2,3-triazole-2-carboxamide], the IC50 lay within 2000 to 10000 nM on DAGLα (hDAGLα-FLAG) and 400 to 2000 nM at DAGLβ (hDAGLβ-FLAG).

Regarding `O=C(N(CCc1ccccc1)CC1CC1)n1cc(-c2ccc(OC(F)(F)F)cc2)nn1` [Compound 130, N-(cyclopropylmethyl)-N-phenethyl-4-(4-(trifluoromethoxy)phenyl)-1H-1,2,3-triazole-1-carboxamide], the IC50 on DAGLα (hDAGLα-FLAG) and on DAGLβ (hDAGLβ-FLAG) was at most 400 nM in each case.

Consider `O=C(N(CCc1ccccc1)CC1CC1)n1ncc(-c2ccc(OC(F)(F)F)cc2)n1` [Compound 131, N-(cyclopropylmethyl)-N-phenethyl-4-(4-(trifluoromethoxy)phenyl)-2H-1,2,3-triazole-1-carboxamide], for which the IC50 at DAGLα (hDAGLα-FLAG) was in the range of 2000 to 10000 nM; at DAGLβ (hDAGLβ-FLAG), 400 to 2000 nM.

`CC(C)(C)CN(CCc1ccncc1)C(=O)n1cc(-c2ccc(OC(F)(F)F)cc2)nn1` [Compound 132, N-neopentyl-N-(2-(pyridin-4-yl)ethyl)-4-(4-(trifluoromethoxy)phenyl)-1H-1,2,3-triazole-1-carboxamide]: the IC50 on DAGLα (hDAGLα-FLAG) and at DAGLβ (hDAGLβ-FLAG) was at most 400 nM throughout.

Take `CC(C)(C)CN(CCc1ccncc1)C(=O)n1ncc(-c2ccc(OC(F)(F)F)cc2)n1` [Compound 133, N-neopentyl-N-(2-(pyridin-4-yl)ethyl)-4-(4-(trifluoromethoxy)phenyl)-2H-1,2,3-triazole-1-carboxamide]: the values for the IC50 on DAGLα (hDAGLα-FLAG) and on DAGLβ (hDAGLβ-FLAG) were 2000 to 10000 nM and 400 to 2000 nM, respectively.

Take `CC(C)(C)CN(CCc1cccnc1)C(=O)n1cc(-c2ccc(OC(F)(F)F)cc2)nn1` [Compound 134, N-neopentyl-N-(2-(pyridin-3-yl)ethyl)-4-(4-(trifluoromethoxy)phenyl)-1H-1,2,3-triazole-1-carboxamide]: the IC50 at DAGLα (hDAGLα-FLAG) and at DAGLβ (hDAGLβ-FLAG) was at most 400 nM each time.

Consider `CC(C)(C)CN(CCc1cccnc1)C(=O)n1ncc(-c2ccc(OC(F)(F)F)cc2)n1` [Compound 135, N-neopentyl-N-(2-(pyridin-3-yl)ethyl)-4-(4-(trifluoromethoxy)phenyl)-2H-1,2,3-triazole-1-carboxamide], for which the IC50 at DAGLα (hDAGLα-FLAG) was 400 to 2000 nM; on DAGLβ (hDAGLβ-FLAG), 2000 to 10000 nM.

Take `CCC(CC)CN(CCc1cccnc1)C(=O)n1cc(-c2ccc(OC(F)(F)F)cc2)nn1` [Compound 136, N-(2-ethylbutyl)-N-(2-(pyridin-3-yl)ethyl)-4-(4-(trifluoromethoxy)phenyl)-1H-1,2,3-triazole-1-carboxamide]: the IC50 on DAGLα (hDAGLα-FLAG) and at DAGLβ (hDAGLβ-FLAG) was at most 400 nM in each case.

Consider `CCC(CC)CN(CCc1cccnc1)C(=O)n1ncc(-c2ccc(OC(F)(F)F)cc2)n1` [Compound 137], for which the IC50 at DAGLα (hDAGLα-FLAG) and at DAGLβ (hDAGLβ-FLAG) was 400 to 2000 nM in each case.

The values are drawn from patent US10583137B2, “Triazole DAGLα inhibitors” (THE SCRIPPS RESEARCH INSTITUTE, priority 2015, dated 2020).
